Source: US9828375B2, “4-position substituted pyrazolopyrimidine derivative, and use thereof in drug preparation” (Guangxi Wuzhou Pharmaceuticals (Group) Co., Ltd., priority 2012, dated 2017)
pIC50: −log10 of the molar value.

Tests used:
[1] = tested on: Abl/Abl (T315I)(h); experiment: Kinase inhibition activity test, isotope labeling: Abl; format: biochemical, human; details: test compound at a concentration of 10 μM
Procedure: The purpose of this experiment was to test the inhibitory activity of the compound of the invention for in vitro kinase with the isotope labeling method (the γ phosphate group on ATP was labeled). In this experiment, the in vitro activity inhibition of such kinases as FLT3, VEGFR2, FLT1, FLT4, RET, c-RAF, B-RAF, c-KIT, PDGFα, PDGFβ, FGFR2, FGFR1, EphA2, EphB2, SRC, ABL, ALK and Met was tested respectively. Staurosporine was reference molecule (or referred to as positive control). The kinase inhibition activity of the test compound was expressed by half-inhibitory concentration (IC50) or the kinase activity inhibition rate of the test compound at a concentration of 10 μM. The IC50 value could be obtained by calculating the kinase activity inhibition rate of the test compound at different concentrations.
20 mM 3-(N-morpholinyl)propanesulfonic acid (MOPS); 1 mM ethylenediaminetetraacetic acid (EDTA), 0.01% Brij 35 (Brij-35), 5% glycerol, 0.1% mercaptoethanol, 1 mg/mL bovine serum albumin (BSA), 10 mM manganous dichloride solution (MnCl2), 0.1 mg/mL glutamic acid/tyrosine (4:1) polypeptide (poly(Glu, Tyr)4:1), 50 μM EAIYAAPFAKKK (substrate of FLT3), 0.33 mg/mL myelin basic protein (substrate of VEGFR2), 250 μM KKKSPGEYVNIEFG (substrate of FLT1(h)), 500 μM GGEEEEYFELVKKKK (substrate of FLT4(h)), 250 μM KKKSPGEYVNIEFG (substrate of RET), 0.66 mg/mL myelin basic protein (substrate of C-RAF), 250 μM GGMEDIYFEFMGGKKK (substrate of c-Kit), 250 μM GGMEDIYFEFMGGKKK (substrate of PDGFα), 250 μM KKKSPGEYVNIEFG (substrate of FGFR1), […] GGEEEEYFELVKKKK (substrate of SRC), 50 μM EAIYAAPFAKKK (substrate of ABL), 250 μM KKKSPGEYVNIEFG (substrate of ALK), 250 μM KKKSPGEYVNIEFG (substrate of Met(h)), 10 mM magnesium acetate and γ-^33 P-ATP solution, stop buffer (3% phosphate buffer), washing buffer (75 mM phosphate solution), methanol, Filtermat A membrane, FLT3, VEGFR2, FLT3, VEGFR2, FLT1, FLT4, RET, c-RAF, B-RAF, c-KIT, PDGFRα, PDGFRβ, FGFR2, FGFR1, EphA2, EphB2, SRC, ABL, ALK, Met and other kinases, and the test compounds.
Buffers (8 mM MOPS with pH value of 7.0, 0.2 mM EDTA and 10 mM MnCl2), (5-10 mU) kinases to be tested (FLT3, VEGFR2, FLT1, FLT4, RET, c-RAF, B-RAF, c-KIT, PDGFRα, PDGFRβ, FGFR2, FGFR1, EphA2, EphB2, SRC, ABL, ALK and Met), substrates of kinases to be tested (refer to experimental materials), 10 mM magnesium acetate and γ-^33 P-ATP solution, and test compounds at different concentrations were added to a reaction tube orderly. […] Reaction was terminated with 5 μL 3% phosphate buffer finally, and 10 μL reaction solution was titrated to the Filtermat A membrane; solution was washed for 3 times with 75 mM phosphate solution with each time lasting 5 minutes, and then washed once with methanol. Finally, the Filtermat A membrane was dried, and scintillation counting was performed on the membrane, with scintillation count reflecting the phosphorylation degree of the substrates, so that the activity inhibition of kinase could be characterized.

[2] = tested on: human thyrophyma cell line TT; experiment: In vitro tumor cell proliferation inhibition (MTT): TT; format: cell-based; details: 72 hours
Description: (§1) The purpose of the experiment was to test the inhibition activity of the compounds of the invention for in vitro human tumor cell proliferation by the methyl thiazolyl tetrazolium (MTT) colorimetry.
(§2) Main reagents: RPMI-1640, fetal bovine serum, pancreatin, etc. were purchased from Gibco BRL Company (Invitrogen Corporation, USA) and IMDM medium that was purchased from American Type Culture Collection (ATCC). Methyl thiazolyl tetrazolium (MTT) and dimethyl sulfoxide (DMSO) were products from Sigma Company (USA). Pyrazolopyrimidine derivatives were composed by the inventor. During in vitro experiment, 100% DMSO was prepared into 10 mM storage solution, the solution was stored in a refrigerator at −20° C. for future use, and was diluted to the required concentration with complete culture solution before use.
(§3) Cell line and culture: Human leukemia cell line MV4-11, Jurkat, K562, human thyrophyma cell line TT, human gastric carcinoma cell line MKN-45, human malignant melanoma cell lines A375 and A875, human pancreatic carcinoma cell line panc-1, human cervical carcinoma cell line HELA, human colorectal carcinoma cell line HCT116, etc. were purchased from American type culture collection and were preserved by this laboratory. All leukemia cell lines (except MV4-11), gastric carcinoma cell lines and thyrophyma cell lines were cultured in RPMI-1640 complete medium containing 10% fetal bovine serum, 100 U/mL penicillin and 100 μg/mL streptomycin at 37° C. in 5% CO2. The remaining cell lines were cultured in DMEM complete medium containing 10% fetal bovine serum (containing 20% MV4-11 cell), 100 U/mL penicillin and 100 µg/mL streptomycin at 37° C. in 5% CO2.
(§4) Cell suspension with cell concentration of 1-2×10^4/mL was adjusted with the complete cell medium and inoculated in a 96-well plate, with each well filled with 200 μl cell suspension that was cultured overnight. On the next day, supernatant was sucked and abandoned (supernatant was sucked upon centrifugation of suspension cells), and then cells were processed with test compounds at gradient concentrations respectively. Meanwhile, a negative control group free from drug and a solvent control group with equal volume were set, and the DMSO concentration was 0.1%. Each dose group was provided with three wells and cultured at 37° C. in 5% CO2. After 72 hours, 20 μl 5 mg/mL MTT reagent was added to each well, and cultured for another 2 to 4 hours, the supernatant was abandoned; 150 μL DMSO was added to each well again, vibrated and mixed evenly for 15 minutes; the absorbance (A) values (proportional to living cell amount) were determined with a microplate reader (λ=570 nm) and averaged. […] Experiment was repeated for 3 times at least. Experimental data were expressed with means, data statistics were tested by t, and P<0.05 means that difference has a statistical significance. The cell proliferation inhibition effects of all compounds as follows are expressed by IC50 or inhibition rate.

[3] = tested on: human malignant melanoma cell line A375; experiment: In vitro tumor cell proliferation inhibition (MTT): A375; format: cell-based; details: 72 hours
Description: as §1, §2, §3, §4

Activity inhibition rate Abl/Abl (T315I)(h) [1]	pIC50 [2]	pIC50 [3]	SMILES
>30%	5.10	> 4.30	O=C(Nc1ccc(Sc2ncnc3[nH]ncc23)cc1)Nc1cccc(C(F)(F)F)c1 [4c-2]
>50%	5.99	5.00 to 5.52	CC(C)(C)c1cc(NC(=O)Nc2ccc(Oc3ncnc4[nH]ncc34)cc2)on1 [4a-25]
86%	5.47	5.67	O=C(Nc1ccc(Oc2ncnc3[nH]ncc23)cc1)Nc1ccc(Cl)c(C(F)(F)F)c1 [4a-2]
27%	5.00 to 5.52	> 4.30	O=C(Nc1ccc(Oc2ncnc3[nH]ncc23)cc1)Nc1ccc(C(F)(F)F)cc1Cl [4a-13]
